Source: patent publication US11484516B2, “Agents for increasing meibomian gland lipid secretion” (Azura Ophthalmics Ltd., priority 2017, dated 2022)

Assays:
[1] = Ex vivo free thiol determination in the human skin model system; conditions: non-toxic concentrations
Method: (§1) Dose response and time course analyses was performed initially in order to evaluate the impact of bucillamine on HaCaT cell viability. Then, selected non-toxic concentrations were further evaluated by BrdU incorporation to determine the ability of the test item to reduce the keratinocyte proliferation rate. In addition, the ability of the test items to reduce thiol moieties, and therefore loosen the blockage of the meibomian gland, was tested on stratum corneum obtained from human skin.
(§2) The cells were incubated without or with six concentrations of the test item, for 24, 48 and 72 hr at 37° C. with 5% CO2 under humidified conditions. At the end of each incubation period, cell viability was measured by MTT assay. A blank control was subtracted from all the measurements. HaCaT Turnover Rate Determination The proliferation rate of HaCaT cells upon treatments with the test item was examined by using the BrdU assay. Colorimetric evaluation of the turnover rate was recorded by ELISA reader. Ex Vivo Assessment in the Human Skin Model System The human skin organ culture was obtained from healthy patient undergoing plastic surgery. The study was initiated the day of surgery.
To isolate the free thiol from the mixture of the samples, samples were incubated with equal volume of TCA (trichloroacetic acid) for 5 min. […] The pellets were evaluated.

[2] = tested on: HaCaT cells; experiment: HaCaT turnover rate determination (BrdU assay); assay type: cell-based; conditions: BrdU incorporation, non-toxic concentrations
Method: as §1, §2

[3] = tested on: 3D Sebocytes culture (human cell line SEBO662); experiment: Lipid accumulation (Oil-red-O staining) in 3D model culture of Sebocytes; assay type: cell-based; conditions: 14 days incubation, lipid droplet surface area
Text: Since secretory cells (meibocytes) of meibomian glands, share similarities with that of the secretory cells (sebocytes) of sebaceous glands, as can be validated from their similar structure, similar function and their joint embryologic development (Knop 2011_IOVS) the effect of Thiol containing Lipids on lipid production can be evaluated in a 3D model culture of Sebocytes. See also: Barrault 2012, Immortalized sebocytes can spontaneously differentiate into a sebaceous-like phenotype when cultured as a 3D epithelium, Exp. Derm, 21:299-319
The effect of different compounds on lipid synthesis was evaluated, in a 3D model culture of Sebocytes. Drug candidates were compounds comprising a thiol group. Selenium disulfide (SeS2 dispersed in CarboxymethylCellulose—CMC) as a positive control. Since Sebocytes differentiation is associated with increased lipid synthesis and accumulation, evaluation of proliferation and differentiation was done by quantifying lipid accumulation in the 3D Sebocytes culture (human cell line—SEBO662). Lipid accumulation was evaluated by lipid staining with Oil red staining.
Sebocytes SEBO662 were cultured into a three dimension (3D) epithelium and differentiated to a sebaceous-like phenotype. The Sebocytes were treated or not (control) with the test compounds and incubated for 14 days. All experiments were performed 3 times. After incubation, tissues were snap-frozen. Formaldehyde-fixed cryo sections were stained using an Oil-red-O solution and counterstained using haematoxylin. For each test condition, the sections were observed using a light microscope equipped with a camera. Five pictures were taken per replicate, making 15 values per treatment condition. The lipid content in each sample was quantified by calculation of the lipid droplet surface area. Quantitative comparison of all data points between lipid's droplet surface area of tested compounds versus control was performed

SMILES | increase of free thiol moieties (keratolytic efficacy) [1] | keratostatic efficacy: turnover rate of the keratinocytes cells [2] | lipid accumulation in the upper region of the 3D Sebocytes (% of the control) ([3]; 0.01 μM) | lipid accumulation in the upper region of the 3D Sebocytes (% of the control) ([3]; 0.1 μM) | lipid accumulation in the upper region of the 3D Sebocytes (% of the control) ([3]; 1 μM)
CC(C)(S)C(=O)N[C@@H](CS)C(=O)O [Bucillamine, bucillamine] | approx. 6 fold | reducing the turnover rate | 115 % of the control | 172 % of the control | 214 % of the control
S=[Se]=S [Selenium disulfide] |  |  | 282 % of the control | 348 % of the control | 
